Experimental data from patent US6500803B1, “Factor VIIa inhibitors” (Aventis Pharma Deutschland GmbH, priority 1999, dated 2002).

Molecular target: T1, factor VIIa/tissue factor (Homo sapiens, UniProt P08709)
T1 construct: human factor VIIa and TF (5 nM and 10 nM, respective final concentration)
Experiment: Factor VIIa (FVIIa) chromogenic assay
Type: biochemical
Conditions: human factor VIIa 5 nM and TF 10 nM, chromogenic substrate S-2288 500 μM, 15 min preincubation, 25° C., pH 8.15
Description: The ability of compounds of formula I to inhibit factor VIIa or other enzymes like factor Xa, thrombin, plasmin, or trypsin can be assessed by determining the concentration of the compound of formula I that inhibits enzyme activity by 50%, i.e., the IC50 value, which is related to the inhibition constant Ki. Purified enzymes are used in chromogenic assays. The concentration of inhibitor that causes a 50% decrease in the rate of substrate hydrolysis is determined by linear regression after plotting the relative rates of hydrolysis (compared to the uninhibited control) versus the log of the concentration of the compound of formula I. For calculating the inhibition constant Ki, the IC50 value is corrected for competition with substrate using the formula: Ki=IC50/{1+(substrate concentration/Km)} wherein Km is the Michaelis-Menten constant (Chen and Prusoff, Biochem. Pharmacol. 22 (1973), 3099-3108; I. H. Segal, Enzyme Kinetics, John Wiley & Sons, New York (1975) 100-125; which are incorporated herein by reference).
a) Factor VIIa (FVIIa) Assay
The inhibitory activity (expressed as inhibition constant Ki (FVIIa)) of compounds of formula I towards factor VIIa/tissue factor activity was determined using a chromogenic assay essentially as described previously (J. A. Ostrem et al., Biochemistry 37 (1998) 1053-1059, which is incorporated herein by reference). Kinetic assays were conducted at 25° C. in half-area microtiter plates (Costar Corp., Cambridge, Mass.) using a kinetic plate reader (Molecular Devices Spectramax 250). A typical assay consisted of 25 μl of human factor VIIa and TF (5 nM and 10 nM, respective final concentration) combined with 40 μl of inhibitor dilutions in 10% DMSOFTBS-PEG buffer (50 mM Tris, 15 mM NaCl, 5 mM CaCl2, 0.05% PEG 8000, pH 8.15). Following a 15 min preincubation period, the assay was initiated by the addition of 35 μl of the chromogenic substrate S-2288 (D-Ile-Pro-Arg-p-nitroanilide, Pharmacia Hepar Inc., 500 μM final concentration).

T1 sequence (P08709 213-466 limits assumed): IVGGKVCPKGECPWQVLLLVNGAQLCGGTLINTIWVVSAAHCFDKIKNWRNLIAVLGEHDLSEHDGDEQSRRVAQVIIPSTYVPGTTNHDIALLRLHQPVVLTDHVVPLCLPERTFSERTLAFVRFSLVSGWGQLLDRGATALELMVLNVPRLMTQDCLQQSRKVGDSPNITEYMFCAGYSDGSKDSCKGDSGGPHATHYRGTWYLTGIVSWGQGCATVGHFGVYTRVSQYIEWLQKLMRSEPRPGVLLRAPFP
T1 sequence (P08709 61-212 limits assumed): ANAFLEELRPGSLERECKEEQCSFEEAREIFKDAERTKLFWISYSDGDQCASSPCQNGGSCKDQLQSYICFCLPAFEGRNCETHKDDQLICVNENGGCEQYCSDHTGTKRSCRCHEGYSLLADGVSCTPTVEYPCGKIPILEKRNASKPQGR
T1 sequence (P13726 33-295 partner): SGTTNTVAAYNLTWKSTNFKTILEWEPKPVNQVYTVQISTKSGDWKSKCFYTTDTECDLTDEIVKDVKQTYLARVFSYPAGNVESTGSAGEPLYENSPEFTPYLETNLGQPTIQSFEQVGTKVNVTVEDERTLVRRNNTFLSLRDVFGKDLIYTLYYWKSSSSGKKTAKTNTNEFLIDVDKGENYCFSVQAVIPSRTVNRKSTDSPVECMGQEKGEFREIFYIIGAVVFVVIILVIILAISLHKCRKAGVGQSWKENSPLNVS

| Ki [nM] | Structure (SMILES) |
| --- | --- |
| 400 | C=CCOC(=O)N[C@@H](Cc1ccc(C(=N)N)cc1)C(=O)N[C@@H](CCC(=O)O)C(=O)NC1c2ccccc2-c2ccc(N)cc21 (mixture of isomers) [Example 6, Alloc-pAph-Glu-((RS)-2-amino-9H-fluorene-9-yl)amide] |
| 400 | C=CCOC(=O)N[C@@H](Cc1ccc(C(=N)N)cc1)C(=O)N[C@@H](CCC(=O)O)C(=O)NCc1ccc(N)cc1 [Example 1, Alloc-pAph-Glu-(4-aminobenzyl)amide] |
| 200 | C=CCOC(=O)N[C@@H](Cc1ccc(C(=N)N)cc1)C(=O)N[C@@H](CCC(=O)O)C(=O)NCc1cccc(N)c1 [Example 2, Alloc-pAph-Glu-(3-aminobenzyl)amide] |
| 800 | C=CCOC(=O)N[C@@H](Cc1ccc(C(=N)N)cc1)C(=O)N[C@@H](CCC(=O)O)C(=O)NCCc1ccc(N)cc1 [Example 3, Alloc-pAph-Glu-(2-(4-aminophenyl)ethyl)amide] |
| 700 | C=CCOC(=O)NC(Cc1ccc(C(=N)N)cc1)C(=O)NC(CCC(=O)O)C(=O)NCc1ccc(O)cc1O (stereo not drawn) [Example 4, Alloc-pAph-Glu-(2,4-dihydroxybenzyl)amide] |
| 600 | C=CCOC(=O)N[C@@H](Cc1ccc(C(=N)N)cc1)C(=O)N[C@@H](CCC(=O)O)C(=O)NCc1ccccc1N [Example 5, Alloc-pAph-Glu-(2-aminobenzyl)amide] |
| 800 | C=CCOC(=O)N[C@@H](Cc1ccc(C(=N)N)cc1)C(=O)N[C@@H](CCC(=O)O)C(=O)NCCCNC(=O)OCC [Example 7, Alloc-pAph-Glu-(3-ethoxycarbonylaminopropyl)amide] |
| 680 | C=CCOC(=O)N[C@@H](Cc1ccc(C(=N)N)cc1)C(=O)N[C@@H](CCC(=O)O)C(=O)NCCCNS(=O)(=O)c1cc(Cl)cc(Cl)c1 [Example 10, Alloc-pAph-Glu-(3-(3,5-dichlorobenzenesulfonylamino)propyl)amide] |
| 800 | C=CCOC(=O)N[C@@H](Cc1ccc(C(=N)N)cc1)C(=O)N[C@@H](CCC(=O)O)C(=O)NCc1cccc(CNS(=O)(=O)c2ccc3ccccc3c2)c1 [Example 11, Alloc-pAph-Glu-(3-((naphthalene-2-sulfonylamino)methyl)benzyl)amide] |
| 44100 | C=CCOC(=O)N[C@@H](Cc1ccc(C(=N)N)cc1)C(=O)N[C@@H](CCC(=O)O)C(=O)Nc1nc(CC(N)=O)cs1 [Example 12, Alloc-pAph-Glu-(4-carbamoylmethylthiazol-2-yl)amide] |
| 1900 | C=CCOC(=O)N[C@@H](Cc1ccc(C(=N)N)cc1)C(=O)N[C@@H](CCC(=O)O)C(=O)NCc1cnc(C)nc1N [Example 13, Alloc-pAph-Glu-(4-amino-2-methylpyrimidin-5-ylmethyl)amide] |
| 3400 | C=CCOC(=O)N[C@@H](Cc1ccc(C(=N)N)cc1)C(=O)N[C@@H](CC(=O)O)C(=O)NCc1cccc(N)c1 [Example 14, Alloc-pAph-Asp-(3-aminobenzyl)amide] |
| 75700 | C=CCOC(=O)N[C@@H](Cc1ccc(C(=N)N)cc1)C(=O)N[C@@H](CCCC(=O)O)C(=O)NCc1cccc(N)c1 [Example 15, Alloc-pAph-2-Aad-(3-aminobenzyl)amide] |
| 1800 | C=CCOC(=O)N[C@@H](Cc1ccc(C(=N)N)cc1)C(=O)N[C@@H](CCC(=O)O)C(=O)NCc1cccc(CNS(=O)(=O)c2cccc3ccccc23)c1 [Example 18] |
| 680 | C=CCOC(=O)N[C@@H](Cc1ccc(C(=N)N)cc1)C(=O)N[C@@H](CCC(=O)O)C(=O)NCc1cccc(CNS(=O)(=O)c2ccc(OC)cc2)c1 [Example 19] |
| 2030 | C=CCOC(=O)N[C@@H](Cc1ccc(C(=N)N)cc1)C(=O)N[C@@H](CCC(=O)O)C(=O)NCc1cccc(CNS(C)(=O)=O)c1 [Example 20] |
| 620 | C=CCOC(=O)N[C@@H](Cc1ccc(C(=N)N)cc1)C(=O)N[C@@H](CCC(=O)O)C(=O)NCc1cccc(CNS(=O)(=O)N(C)C)c1 [Example 21] |
| 1460 | C=CCOC(=O)N[C@@H](Cc1ccc(C(=N)N)cc1)C(=O)N[C@@H](CCC(=O)O)C(=O)NCc1cccc(CNS(=O)(=O)C=Cc2ccccc2)c1 [Example 22] |
| 890 | C=CCOC(=O)N[C@@H](Cc1ccc(C(=N)N)cc1)C(=O)N[C@@H](CCC(=O)O)C(=O)NCc1cccc(CNS(=O)(=O)c2ccc(Cl)s2)c1 [Example 24] |
| 1880 | C=CCOC(=O)N[C@@H](Cc1ccc(C(=N)N)cc1)C(=O)N[C@@H](CCC(=O)O)C(=O)NCc1cccc(CNS(=O)(=O)c2ccc(F)cc2)c1 [Example 25] |
| 300 | C=CCOC(=O)N[C@@H](Cc1ccc(C(=N)N)cc1)C(=O)N[C@@H](CCC(=O)O)C(=O)NCCCNS(=O)(=O)c1cccc(Br)c1 [Example 26] |
| 280 | C=CCOC(=O)N[C@@H](Cc1ccc(C(=N)N)cc1)C(=O)N[C@@H](CCC(=O)O)C(=O)NCCCNS(=O)(=O)c1ccc(OC)cc1 [Example 28] |
| 430 | C=CCOC(=O)N[C@@H](Cc1ccc(C(=N)N)cc1)C(=O)N[C@@H](CCC(=O)O)C(=O)NC1CCN(S(=O)(=O)c2cccc(Br)c2)CC1 [Example 30] |
| 640 | C=CCOC(=O)N[C@@H](Cc1ccc(C(=N)N)cc1)C(=O)N[C@@H](CCC(=O)O)C(=O)NC1CCN(S(=O)(=O)c2cccc(C(F)(F)F)c2)CC1 [Example 31] |
| 560 | C=CCOC(=O)N[C@@H](Cc1ccc(C(=N)N)cc1)C(=O)N[C@@H](CCC(=O)O)C(=O)NC1CCN(S(=O)(=O)c2cccc(Cl)c2)CC1 [Example 32] |
| 3700 | C=CCOC(=O)N[C@@H](Cc1ccc(C(=N)N)cc1)C(=O)N[C@@H](CCC(=O)O)C(=O)NCc1cccc(CN)c1 [Example 37] |
| 3820 | C=CCOC(=O)N[C@@H](Cc1ccc(C(=N)N)cc1)C(=O)N[C@@H](CCC(=O)O)C(=O)NCCCN [Example 38] |
